According to patent publication US20040072206A1, “Method for identifying modulators of transcription” (priority 2000, published 2004):

Molecular target: T1, B. subtilis RNAP (Bacillus subtilis, UniProt P37870+P37871)
T1 construct: endogenous in cells; host or cells: Bacillus subtilis strain PL37 (built from strain 168)
Test: Dual reporter assay in strain PL37: test reporter Pxyl-lacZ and ratio of control to test reporter (RES:MUG)
Assay type: cell-based
Conditions: for Ratio of the control reporter (RES): test reporter (MUG): strain PL37, DMSO control […]
Description: 20 known antibiotics were tested at a range of concentrations to determine their effect on test and control reporters within the assay. […] Cultures of PL37 grown in PAB, were diluted to 0.05 A600 and then grown for 2 hours at 37° C. in PAB supplemented with 0.02 mM IPTG. Cells were pelleted and frozen. They were later resuspended and diluted in PAB supplemented with 0.02 mM IPTG and grown at 37° C. to early exponential phase. Cultures were then diluted to 0.05 A600 in PAB and added in 20 μl volumes to wells of microtitre plates containing 20 μl volumes of the antibiotics. Plates were incubated at 37° C. for two hours, and assay mix was added to detect reporter enzyme activity (see below).
Following the addition of 160 μl of assay mix (1.3×Z buffer containing 94 μg/ml lysozyme, 8.4 μg/ml 4-methylumbelliferyl-β-D-galactoside, 0.53 μg/ml resorufin-β-D-glucuronide and 0.05% Triton) to each well, the microtitre plate was incubated in the dark for 30 mini or 1 hour at room temperature. Fluorescence was read on a BMG FLUOstar Galaxy at excitation/emission 355/460 nm and 544/590 nm, respectively, with gains set at 5 and 25, respectively.

[1] = Dilution Number 1 (highest concentration tested: 128, 16 or 0.5 μg/ml depending on antibiotic)
[2] = Dilution Number 11 (lowest concentration tested: 0.125, 0.016 or 0.0005 μg/ml depending on antibiotic)

T1 sequence (P37871 whole entry): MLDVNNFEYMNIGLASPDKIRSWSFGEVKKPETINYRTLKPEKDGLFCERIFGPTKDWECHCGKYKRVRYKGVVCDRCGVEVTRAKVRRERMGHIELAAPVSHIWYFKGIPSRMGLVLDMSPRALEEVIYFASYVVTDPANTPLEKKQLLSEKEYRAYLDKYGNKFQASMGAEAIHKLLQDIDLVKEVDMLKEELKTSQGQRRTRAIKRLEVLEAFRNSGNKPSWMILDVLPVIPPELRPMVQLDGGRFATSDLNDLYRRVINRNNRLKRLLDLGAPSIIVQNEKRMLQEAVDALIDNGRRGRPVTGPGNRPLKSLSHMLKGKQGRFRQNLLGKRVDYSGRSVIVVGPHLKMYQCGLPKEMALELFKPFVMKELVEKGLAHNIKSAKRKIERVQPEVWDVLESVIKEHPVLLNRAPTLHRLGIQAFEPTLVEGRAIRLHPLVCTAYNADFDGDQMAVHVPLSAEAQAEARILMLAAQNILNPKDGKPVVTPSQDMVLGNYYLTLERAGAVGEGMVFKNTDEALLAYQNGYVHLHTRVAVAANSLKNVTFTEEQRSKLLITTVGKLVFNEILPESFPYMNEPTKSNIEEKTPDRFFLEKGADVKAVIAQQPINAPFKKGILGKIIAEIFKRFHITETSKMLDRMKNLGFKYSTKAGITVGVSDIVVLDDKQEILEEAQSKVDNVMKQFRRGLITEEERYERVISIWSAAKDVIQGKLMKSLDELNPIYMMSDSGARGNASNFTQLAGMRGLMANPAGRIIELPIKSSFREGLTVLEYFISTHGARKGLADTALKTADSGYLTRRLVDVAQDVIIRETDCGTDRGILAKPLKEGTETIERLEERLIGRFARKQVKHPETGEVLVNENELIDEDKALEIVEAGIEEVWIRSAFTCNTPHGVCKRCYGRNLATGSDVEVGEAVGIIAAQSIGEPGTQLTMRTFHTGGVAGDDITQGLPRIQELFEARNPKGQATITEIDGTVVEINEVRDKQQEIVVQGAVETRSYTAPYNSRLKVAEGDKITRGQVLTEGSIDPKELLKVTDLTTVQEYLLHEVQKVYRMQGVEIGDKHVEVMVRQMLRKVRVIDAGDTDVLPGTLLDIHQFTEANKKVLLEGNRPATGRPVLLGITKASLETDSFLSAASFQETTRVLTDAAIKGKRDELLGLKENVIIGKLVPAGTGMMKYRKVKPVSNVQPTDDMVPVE
T1 sequence (P20429 whole entry, further chain): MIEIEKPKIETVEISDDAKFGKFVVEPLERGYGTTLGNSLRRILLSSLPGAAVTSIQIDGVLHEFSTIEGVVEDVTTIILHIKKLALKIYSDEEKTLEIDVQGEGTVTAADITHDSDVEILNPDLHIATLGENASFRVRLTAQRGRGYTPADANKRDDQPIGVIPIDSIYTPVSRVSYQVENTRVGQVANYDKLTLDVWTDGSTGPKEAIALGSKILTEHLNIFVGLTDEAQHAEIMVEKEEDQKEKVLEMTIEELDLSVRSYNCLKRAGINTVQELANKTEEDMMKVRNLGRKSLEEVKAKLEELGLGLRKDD
T1 sequence (O35011 whole entry, further chain): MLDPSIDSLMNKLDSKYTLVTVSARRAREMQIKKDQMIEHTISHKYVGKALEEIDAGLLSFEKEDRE
T1 sequence (P37870 whole entry): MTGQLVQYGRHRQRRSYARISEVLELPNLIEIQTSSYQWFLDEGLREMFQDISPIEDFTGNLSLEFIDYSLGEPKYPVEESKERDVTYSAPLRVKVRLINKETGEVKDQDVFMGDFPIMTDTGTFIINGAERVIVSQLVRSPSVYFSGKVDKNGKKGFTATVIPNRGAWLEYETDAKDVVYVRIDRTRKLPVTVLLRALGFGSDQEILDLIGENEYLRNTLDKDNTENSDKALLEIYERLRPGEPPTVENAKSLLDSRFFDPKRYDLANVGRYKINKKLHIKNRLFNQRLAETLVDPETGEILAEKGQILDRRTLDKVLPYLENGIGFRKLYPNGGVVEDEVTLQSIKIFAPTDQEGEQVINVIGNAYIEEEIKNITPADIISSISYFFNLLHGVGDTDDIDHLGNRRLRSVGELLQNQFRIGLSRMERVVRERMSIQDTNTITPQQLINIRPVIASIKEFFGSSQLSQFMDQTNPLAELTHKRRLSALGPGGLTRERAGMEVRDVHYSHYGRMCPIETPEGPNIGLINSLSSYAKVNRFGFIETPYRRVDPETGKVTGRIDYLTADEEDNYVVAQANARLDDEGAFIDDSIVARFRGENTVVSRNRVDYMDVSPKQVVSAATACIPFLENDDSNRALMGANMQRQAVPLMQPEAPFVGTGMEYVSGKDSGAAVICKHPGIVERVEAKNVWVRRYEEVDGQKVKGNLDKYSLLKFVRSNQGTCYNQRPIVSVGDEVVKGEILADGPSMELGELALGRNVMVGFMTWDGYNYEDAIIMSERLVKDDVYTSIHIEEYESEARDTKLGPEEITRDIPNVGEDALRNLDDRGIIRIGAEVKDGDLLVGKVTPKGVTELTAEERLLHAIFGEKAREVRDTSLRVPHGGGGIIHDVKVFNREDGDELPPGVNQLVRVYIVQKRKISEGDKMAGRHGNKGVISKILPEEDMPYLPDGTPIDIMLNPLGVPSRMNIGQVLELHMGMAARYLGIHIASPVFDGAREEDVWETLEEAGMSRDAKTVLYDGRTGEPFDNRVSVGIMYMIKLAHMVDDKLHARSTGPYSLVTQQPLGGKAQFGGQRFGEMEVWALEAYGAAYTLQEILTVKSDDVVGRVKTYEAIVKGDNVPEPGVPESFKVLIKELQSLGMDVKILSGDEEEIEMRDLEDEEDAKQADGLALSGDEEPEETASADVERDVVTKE

| Compound | Ratio of the control reporter (RES): test reporter (MUG) [1] | Ratio of the control reporter (RES): test reporter (MUG) (Dilution Number 2) | Ratio of the control reporter (RES): test reporter (MUG) (Dilution Number 3) | Ratio of the control reporter (RES): test reporter (MUG) (Dilution Number 4) | Ratio of the control reporter (RES): test reporter (MUG) (Dilution Number 5) | Ratio of the control reporter (RES): test reporter (MUG) (Dilution Number 6) | Ratio of the control reporter (RES): test reporter (MUG) (Dilution Number 9) | Ratio of the control reporter (RES): test reporter (MUG) (Dilution Number 10) | Ratio of the control reporter (RES): test reporter (MUG) [2] | Ratio of the control reporter (RES): test reporter (MUG) (Dilution Number 7) | Ratio of the control reporter (RES): test reporter (MUG) (Dilution Number 8) | Reporter expression (both reporter activities) (strain PL37, FIG. 5 and FIG. 6) |
| --- | --- | --- | --- | --- | --- | --- | --- | --- | --- | --- | --- | --- |
| CC1=C(C(=O)O)N2C(=O)[C@@H](NC(=O)[C@H](N)c3ccccc3)[C@H]2SC1 [Cephalexin] | 1.73 | 1.78 | 1.76 | 1.62 | 1.68 | 1.81 | – | – | – | – | – | – |
| CC1(C)S[C@@H]2[C@H](NC(=O)[C@H](N)c3ccccc3)C(=O)N2[C@H]1C(=O)O [Ampicillin] | – | – | – | – | – | – | 1.16 | 1.02 | 1.06 | – | – | – |
| CCn1cc(C(=O)O)c(=O)c2cc3c(cc21)OCO3 [Oxolinic Acid] | 0.89 | 1.33 | 1.63 | 1.77 | 2.02 | 1.86 | 1.05 | 1.14 | 1.17 | 0.96 | 1.06 | – |
| CC1(C)S[C@@H]2[C@H](NC(=O)C(C(=O)O)c3ccccc3)C(=O)N2[C@H]1C(=O)O (some centres unmarked) [Carbenicillin] | 1.37 | 1.49 | 1.59 | 1.63 | 1.66 | 1.64 | 1.00 | 1.05 | 1.07 | 1.60 | 1.03 | – |
| CC[C@H]1OC(=O)[C@H](C)[C@@H](O[C@H]2C[C@@](C)(OC)[C@@H](O)[C@H](C)O2)[C@H](C)[C@@H](O[C@@H]2O[C@H](C)C[C@H](N(C)C)[C@H]2O)[C@](C)(O)C[C@@H](C)C(=O)[C@H](C)[C@@H](O)[C@]1(C)O [Erythromycin] | – | – | – | 1.45 | 1.58 | 1.72 | 1.56 | – | – | 1.73 | 1.71 | – |
| CCC[C@@H]1C[C@@H](C(=O)N[C@@H]([C@H]2O[C@H](SC)[C@H](O)[C@@H](O)[C@H]2O)[C@@H](C)O)N(C)C1 [Lincomycin] | 1.09 | 1.20 | 1.29 | 1.61 | 1.91 | 1.40 | 1.02 | 1.03 | 1.08 | 1.08 | 0.99 | – |
| CC[C@@]1([C@@H]2O[C@@H]([C@H]3O[C@@](O)(CO)[C@H](C)C[C@@H]3C)C[C@@H]2C)CC[C@H]([C@]2(C)CC[C@]3(C[C@H](O)[C@@H](C)[C@@H]([C@@H](C)[C@@H](OC)[C@H](C)C(=O)O)O3)O2)O1 [Monensin] | 1.74 | 1.42 | 1.45 | 1.79 | 2.06 | 2.00 | 1.54 | 1.37 | 1.33 | 1.88 | 1.74 | – |
| Polymyxin | 1.19 | 1.22 | 1.21 | 1.23 | 1.44 | 1.24 | 1.16 | 1.16 | 1.17 | 1.20 | 1.15 | – |
| CCn1cc(C(=O)O)c(=O)c2ccc(C)nc21 [Nalidixic Acid] | 1.50 | 1.76 | 1.74 | 0.87 | 0.68 | 0.91 | 1.26 | 1.26 | 1.22 | 1.18 | 1.25 | – |
| CN[C@H](CC(C)C)C(=O)N[C@H]1C(=O)N[C@@H](CC(N)=O)C(=O)N[C@H]2C(=O)N[C@H]3C(=O)N[C@H](C(=O)N[C@H](C(=O)O)c4cc(O)cc(O)c4-c4cc3ccc4O)[C@H](O)c3ccc(c(Cl)c3)Oc3cc2cc(c3O[C@@H]2O[C@H](CO)[C@@H](O)[C@H](O)[C@H]2O[C@H]2C[C@](C)(N)[C@H](O)[C@H](C)O2)Oc2ccc(cc2Cl)[C@H]1O [Vancomycin] | – | – | – | – | – | – | 1.07 | 1.11 | 1.12 | 1.03 | 1.04 | – |
| CN[C@@H]1[C@H](O)[C@H](NC)[C@H]2O[C@@]3(O)C(=O)C[C@@H](C)O[C@H]3O[C@@H]2[C@H]1O [Spectinomycin] | 1.30 | 1.23 | 1.21 | 1.14 | 1.16 | 1.14 | 1.10 | 1.10 | 1.13 | 1.08 | 1.10 | remained unchanged |
| CC1(C)S[C@@H]2[C@H](NC(=O)Cc3ccccc3)C(=O)N2[C@H]1C(=O)O [Penicillin G] | 1.77 | 1.72 | 1.70 | 1.76 | 1.81 | 1.80 | 1.01 | 1.01 | 1.07 | 1.84 | 1.64 | – |
| CO[C@@H]1[C@@H](OC(N)=O)[C@@H](O)[C@H](Oc2ccc3c(O)c(NC(=O)c4ccc(O)c(CC=C(C)C)c4)c(=O)oc3c2C)OC1(C)C [Novobiocin] | 1.33 | 1.70 | 1.66 | 1.49 | 1.24 | 0.81 | 1.14 | 1.18 | 1.19 | 0.85 | 1.05 | – |
| CC(O)C(=O)O.COc1cc(Cc2cnc(N)nc2N)cc(OC)c1OC [Trimethoprim Lactate] | 0.62 | 0.55 | 0.54 | 0.52 | 0.54 | 0.58 | 0.63 | 0.81 | 1.00 | 0.68 | 0.65 | – |
